Data as given in PubChem BioAssay (NCI).
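How tested: cells in 96-well plates exposed to compound for 48 hours at five concentrations. The concentration for full growth arrest is given as TGI.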 Where a SMILES comes first, the peptide text is derived from it. [ ]: non-standard residue; d: D form. The star is where a group is joined. Bn2Val = CC(C)[C@@H](C(=O)*)N(Cc1ccccc1)Cc1ccccc1; NMeV = CN[C@H](C(=O)O)C(C)C; X29 = COc1ccc(CN*)c(OC)c1; dNMeA = CN[C@H](C)C(=O)O

Assays:
Experiment in all cases: NCI anticancer screen, dose series, 48 h
NCI-H23 lung = test system: NCI-H23 lung
SK-MEL-28 melanoma = test system: SK-MEL-28 melanoma
CCRF-CEM leukemia = test system: CCRF-CEM leukemia
SW-620 colon = test system: SW-620 colon
786-0 renal = test system: 786-0 renal
HT29 colon = test system: HT29 colon
UACC-257 melanoma = test system: UACC-257 melanoma
UACC-62 melanoma = test system: UACC-62 melanoma
MALME-3M melanoma = test system: MALME-3M melanoma
MCF7 breast = test system: MCF7 breast

Row | SMILES | TGI (NCI-H23 lung) | TGI (SK-MEL-28 melanoma) | TGI (CCRF-CEM leukemia) | TGI (SW-620 colon) | TGI (786-0 renal) | TGI (HT29 colon) | TGI (UACC-257 melanoma) | TGI (UACC-62 melanoma) | TGI (MALME-3M melanoma) | TGI (MCF7 breast)
1 | CC1(C)CC2(C)CC1CC2(O)c1ccccc1 (configuration not stated) | > 100 µM | > 100 µM | > 100 µM | > 100 µM | > 100 µM | > 100 µM | > 100 µM | > 100 µM | > 100 µM | 
2 | CCC(COC(=O)CC[C@@H](NC(=O)C(C)NC(=O)C(C)OC1C(O)C(CO)OC(OCc2ccccc2)C1NC(C)=O)C(N)=O)NC1c2ccccc2Nc2cccc([N+](=O)[O-])c21 (some centres not stated) | > 100 µM | > 100 µM | > 100 µM | > 100 µM | > 100 µM | > 100 µM | > 100 µM | > 100 µM | > 100 µM | 
3 | C#CCNC(=O)NCCCCC(NC(=O)OCc1ccccc1)C(=O)OCc1ccccc1 (configuration not stated) | > 100 µM | > 100 µM | 41.3 µM | > 100 µM | > 100 µM | > 100 µM | > 100 µM | > 100 µM | > 100 µM | 
4 | O=[N+]([O-])c1ccc2oc(=Nc3ccccc3)c(Nc3ccccc3)nc2c1 | > 100 µM | > 100 µM | > 100 µM | > 100 µM | 76.6 µM | > 100 µM | > 100 µM | > 100 µM | > 100 µM | 
5 | CCCc1c(C(=O)OCC)[nH]c(-c2ccc(-c3[nH]c(C(=O)OCC)c(CCC)c3C(=O)OCC)s2)c1C(=O)OCC | > 100 µM | > 100 µM | > 100 µM | > 100 µM | > 100 µM | > 100 µM | > 100 µM | > 100 µM | > 100 µM | 
6 | CCOC(=O)C(C)Sc1nnc(COc2ccccc2OC)n1-c1ccccc1 (configuration not stated) | > 100 µM | > 100 µM | > 100 µM | 47 µM | > 100 µM | > 100 µM | > 100 µM | > 100 µM | > 100 µM | 
7 | [O-][n+]1c(CN2CCCCC2)nc2cccc3c2c1-c1ccccc1-3 | 48.5 µM | > 100 µM |  | > 100 µM | 51.5 µM | 51.8 µM | 39.4 µM | 32.8 µM | 29 µM | 76.5 µM
8 | CCOC(=O)c1c(C)nc2c(c1-c1cn(-c3ccccc3)nc1-c1ccccc1)C(=O)c1ccccc1-2 | > 100 µM | > 100 µM | > 100 µM | > 100 µM | > 100 µM | > 100 µM | > 100 µM | > 100 µM | > 100 µM | 
9 | CCOC(=O)c1cc2c(OCc3ccccc3)c(OC)cc3c2c(n1)N(c1ccc(OC)cc1)C(C)C3 (configuration not stated) | > 50 µM | > 50 µM | > 50 µM | > 50 µM | > 50 µM |  |  | > 50 µM | > 50 µM | 
10 | Nc1cccc(S(=O)(=O)Nc2nnc(S(N)(=O)=O)s2)c1 | > 100 µM | > 100 µM |  | > 100 µM | > 100 µM | > 100 µM |  | > 100 µM | > 100 µM | > 100 µM
11 | CCCCCCCCCC(=O)N[C@@H](c1ccco1)[C@@H](O)C(=O)O[C@H]1C[C@@]2(O)[C@@H](OC(=O)c3ccccc3)[C@@H]3[C@]4(OC(C)=O)CO[C@@H]4C[C@H](O)[C@@]3(C)C(=O)[C@H](OC(C)=O)C(=C1C)C2(C)C | 11.4 µM | 14.8 µM |  | > 50 µM | 7.95 µM | 7.1 µM | 11.7 µM | 9.53 µM | 12.4 µM | 1.81 µM
12 | COc1ccc(CNC(=O)[C@@H]2CCCN2C(=O)[C@@H](C)N(C)C(=O)[C@H](C(C)C)N(C)C(=O)[C@@H](NC(=O)[C@H](C(C)C)N(Cc2ccccc2)Cc2ccccc2)C(C)C)c(OC)c1 (Bn2Val-V[NMeV][dNMeA]P-X29) | 9.3 µM | 10.2 µM |  | 20.6 µM | 11.1 µM | 3.26 µM | 11.9 µM | 15.4 µM | 36.7 µM | 12 µM
13 | O=C1CC(C(CC(=O)c2ccccc2)c2ccccc2)C(=O)c2ccccc2N1 (configuration not stated) | > 100 µM |  | > 100 µM | > 100 µM | > 100 µM | > 100 µM | > 100 µM | > 100 µM | > 100 µM | 80.1 µM
14 | Cc1ccnc2nc(N)ccc12 | > 100 µM | > 100 µM | > 100 µM | > 100 µM | > 100 µM | > 100 µM | > 100 µM | > 100 µM | > 100 µM | 
15 | Cc1c2c(cc3c1C(=O)C(=O)C1=C3OC[C@@H]1C)C(C)(C)CCC2 | 28.4 µM | 27.3 µM | 42 µM | 28.4 µM | 75.9 µM | 32.5 µM | 28.4 µM | 25.9 µM | 29 µM | 
16 | O=C(C#Cc1ccccc1)N1c2ccccc2CC1c1c[nH]c2ccccc12 (configuration not stated) | 32.4 µM | 30.5 µM | 32 µM | 30.3 µM | 34.8 µM | 40.6 µM | 42 µM | 22.8 µM | 37.6 µM | 
17 | COC(=O)C(=O)C(C(=O)C(=O)Nc1cccc([N+](=O)[O-])c1)c1nc2ccc(Cl)cc2[nH]c1=O (configuration not stated) | > 100 µM | > 100 µM | > 100 µM | > 100 µM | > 100 µM | > 100 µM | > 100 µM | > 100 µM |  | > 100 µM
18 | CCN(CC)CCCNC(=O)c1cc2cc(NC(=O)c3cc4cc([N+](=O)[O-])ccc4[nH]3)ccc2[nH]1 | > 100 µM | > 100 µM |  | > 100 µM | > 100 µM | > 100 µM | 76.9 µM | 96.3 µM |  | > 100 µM
19 | COc1ccc(C2OCCN2C)cc1 (configuration not stated) | > 100 µM |  | > 100 µM | > 100 µM | > 100 µM | > 100 µM | > 100 µM | > 100 µM | > 100 µM | > 100 µM
20 | COc1ccc2nc3c(c(NCCCN(C)C)c2c1)CCCC3 | 31.4 µM | 30.9 µM | 28.3 µM | 51.5 µM | 28.8 µM | 27.6 µM | 31.3 µM | 31.2 µM | 33.9 µM | 
21 | O=C1Nc2cc([N+](=O)[O-])c(Br)cc2C1=O | 31.9 µM | 36.3 µM | 32.1 µM | 38.6 µM | 35.8 µM | 41.9 µM | 35.1 µM | 42.4 µM | 46.4 µM | 
22 | Cc1ccc(-c2nnc(CCCCCCCCc3nnc(-c4ccc(C)cc4O)n3N)n2N)c(O)c1 | > 100 µM | > 100 µM |  | > 100 µM | > 100 µM |  | > 100 µM | > 100 µM | > 100 µM | > 100 µM
23 | CC1(C)C2CCC3(OCCO3)C1C(O)C2 (configuration not stated) | > 100 µM | > 100 µM | > 100 µM | > 100 µM | > 100 µM | > 100 µM | > 100 µM | > 100 µM | > 100 µM | 
